Results taken from ChEMBL document CHEMBL3045808, “Insect antifeedants from Munronia henryi: structure of munroniamide” (2003).

Assays:
Pieris brassicae [1] = experiment: Antifeedant activity against fasted third-instar larvae of Pieris brassicae infested in compound-treated Brassica oleracea leaves at 1000 ppm after 48 hr by leaf-disc method relative to control; format: functional
Pieris brassicae [2] = experiment: Insecticidal activity against fasted third-instar larvae of Pieris brassicae infested in compound-treated Brassica oleracea leaves assessed as mortality at 1000 ppm after 6 days relative to control; format: functional; conditions: 144 h

| SMILES | Activity (Pieris brassicae [1]) [%] | mortality at 1000 ppm (Pieris brassicae [2]) [%] |
| --- | --- | --- |
| CCCCCCCCC/C=C\CCC[C@@H](O)[C@@H](O)[C@H](CO[C@@H]1O[C@H](CO)[C@@H](O)[C@H](O)[C@H]1O)NC(=O)[C@H](O)CCCCCCCCCCCCCCCCCCCCCC | 62 | 50 |
| CCCCCCCCC/C=C/CCC[C@@H](O)[C@@H](O)[C@H](CO)NC(=O)[C@H](O)CCCCCCCCCCCCCCCCCCCCCC | 3 | 0 |
| CCCCCCCCCCCCC/C=C/[C@@H](O)[C@H](CO)NC(=O)[C@H](O)CCCCCCCCCCCCCCCCCCCCCC | 0 | 0 |
| C/C=C(\C)C(=O)O[C@H]1C[C@@H](OC(C)=O)[C@@]2(C(=O)OC)CO[C@H]3[C@@H](O)[C@@](C)([C@]45O[C@@]4(C)[C@@H]4C[C@H]5O[C@@H]5OC=C[C@@]54O)[C@H]4[C@]1(CO[C@]4(O)C(=O)OC)[C@@H]32 [AZADIRACHTIN A] | 99.5 | 100 |
| C=C1[C@@H]2[C@@H](OC(=O)C=C[C@@]2(C)[C@H]2CC(=O)OC2(C)C)[C@H](OC(C)=O)[C@@]2(C)[C@H](C3=CCN(C(=O)CCNN)C3=O)C[C@H]3O[C@]132 [MUNRONIAMIDE] | 27.6 | 10 |
